Source: US20040076974A1, “Liver necrosis predictive genes” (priority 2002, published 2004)
Values joined by “and” are separate entries in the source; they are usually repeats but may differ in a detail not shown here. Identical values can stand only once. Like-named read-outs stand apart in the source and are kept apart here.

System: toxicologically relevant rat genes (rat CT array)
Details: 24 h, ratio treatment/control, listed as PBARB

Compound: CCC1(c2ccccc2)C(=O)NC(=O)NC1=O [phenobarbital]
- 3-hydroxyisobutyrate dehydrogenase (dose 20): 1.08 and 1.006
- 14-3-3 zeta (dose 20): 1.208 and 1.207
- 17-beta hydroxysteroid dehydrogenase, type 2 (dose 20): 1.581 and 1.324
- 60S ribosomal protein L6 (dose 20): 1.352 and 1.202
- ATPase inhibitor (rat mitochondrial IF1 protein) (dose 20): 0.6195 and 0.719
- Alpha 1 - inhibitor III (dose 20): 0.5583 and 0.815
- Alpha-2-macroglobulin (dose 20): 0.7668 and 0.9845
- Bax (alpha) (dose 20): 1.204 and 1.029
- Beta-actin (dose 20): 1.31 and 1.008
- Calpactin I heavy chain (dose 20): 1.101 and 1.191
- Carbamyl phosphate synthetase I (dose 20): 0.7852 and 0.892
- Carbonic anhydrase III (dose 20): 0.977 and 0.617
- Carbonyl reductase (dose 20): 0.9613 and 0.916
- Cathepsin L, sequence 2 (dose 20): 1.563 and 1.367
- Cofilin (dose 20): 0.9117
- Cyclin G (dose 20): 1
- DNA polymerase beta (dose 20): 1.056
- Dynamin-1 (D100) (dose 20): 0.8477 and 0.8322
- Endogenous retroviral sequence, 5′ and 3′ LTR (dose 20): 0.9945 and 0.7515
- Enolase alpha (dose 20): 1.238 and 0.9827
- Epidermal growth factor (dose 20): 0.8761 and 0.9811
- Equilbrative nitrobenzylthioinosine-sensitive nucleoside transporter (dose 20): 1.018 and 0.7905
- Extracellular-signal-regulated kinase 1 (dose 20): 1.131 and 0.7366
- Fas antigen (dose 20): 1.246 and 1.226
- Gadd45 (dose 20): 1.009 and 1.065
- Gadd153 (dose 20): 1.013 and 1.011
- Gamma-actin, cytoplasmic (dose 20): 1.054 and 0.8811
- Glucose-regulated protein 78 (dose 20): 1.261 and 1.059
- Heme oxygenase (dose 20): 0.9438 and 0.9315
- Hepatic lipase (dose 20): 0.6998 and 0.9047
- ID-1 (dose 20): 0.8693 and 1.008
- IgE binding protein (dose 20): 0.8925 and 0.9114
- IkB-a (dose 20): 1.305 and 0.9599
- Insulin-like growth factor I (dose 20): 0.7485 and 0.9327
- Insulin-like growth factor binding protein 1 (dose 20): 1.727 and 1.357
- Insulin-like growth factor binding protein 3 (dose 20): 0.8872 and 0.9985
- Integrin beta1 (dose 20): 1.272 and 1.092
- L-gulono-gamma-lactone oxidase (dose 20): 1.051 and 0.8183
- Liver fatty acid binding protein (dose 20): 1.109 and 1.478
- MAP kinase kinase (dose 20): 1.185
- Macrophage inflammatory protein-2 alpha (dose 20): 1.188 and 1.009
- Matrin F/G (dose 20): 1.181 and 1.074
- Matrix metalloproteinase-1 (dose 20): 1.164
- Melanoma-associated antigen ME491 (dose 20): 0.9925 and 1.119
- Monocyte chemotactic protein receptor (CCR2) (dose 20): 1.134
- Multidrug resistant protein-2 (dose 20): 1.635 and 1.128
- N-hydroxy-2-acetylaminofluorene sulfotransferase (ST1C1) (dose 20): 0.9899 and 0.8091
- Organic anion transporter 3 (dose 20): 1.248 and 1.132
- Organic cation transporter 3 (dose 20): 1.276 and 1.184
- Ornithine decarboxylase (dose 20): 1.253 and 1.099
- PAR interacting protein (dose 20): 1.254 and 1.247
- Phase-1 RCT 252 (dose 20): 0.9399
- Phase-1 RCT-15 (dose 20): 1.589
- Phase-1 RCT-33 (dose 20): 1.471
- Phase-1 RCT-36 (dose 20): 1.441
- Phase-1 RCT-39 (dose 20): 1.098 and 0.9997
- Phase-1 RCT-48 (dose 20): 0.8561
- Phase-1 RCT-49 (dose 20): 0.9102
- Phase-1 RCT-50 (dose 20): 1.003 and 0.9822
- Phase-1 RCT-83 (dose 20): 0.8335
- Phase-1 RCT-88 (dose 20): 0.963
- Phase-1 RCT-102 (dose 20): 0.6239
- Phase-1 RCT-117 (dose 20): 0.7039
- Phase-1 RCT-123 (dose 20): 0.9541
- Phase-1 RCT-127 (dose 20): 0.7569
- Phase-1 RCT-128 (dose 20): 0.7394 and 0.7417
- Phase-1 RCT-137 (dose 20): 0.7926
- Phase-1 RCT-179 (dose 20): 0.8634 and 0.9704
- Phase-1 RCT-181 (dose 20): 0.9556
- Phase-1 RCT-182 (dose 20): 0.8988
- Phase-1 RCT-189 (dose 20): 0.9743
- Phase-1 RCT-191 (dose 20): 1.518 and 1.291
- Phase-1 RCT-213 (dose 20): 1.105
- Phase-1 RCT-239 (dose 20): 0.8651
- Phase-1 RCT-242 (dose 20): 0.9504
- Phase-1 RCT-256 (dose 20): 0.9833
- Phase-1 RCT-258 (dose 20): 1.096
- Phase-1 RCT-264 (dose 20): 0.5841
- Phase-1 RCT-288 (dose 20): 0.674
- Proliferating cell nuclear antigen gene (dose 20): 1.31 and 0.9115
- Ribosomal protein L13A (dose 20): 1.101 and 1.176
- Ribosomal protein S8 (dose 20): 1.41 and 1.396
- Senescence marker protein-30 (dose 20): 0.7967 and 0.7544
- Sodium/bile acid cotransporter (dose 20): 1.606 and 1.619
- Superoxide dismutase Mn (dose 20): 1.251 and 1.032
- Thymosin beta-10 (dose 20): 1.095
- Transthyretin (dose 20): 0.579 and 0.7326
- Ubiquitin conjugating enzyme (RAD 6 homologue) (dose 20): 1.219 and 1.207
- Uncoupling protein 2 (dose 20): 1.028 and 0.9917
- Zinc finger protein (dose 20): 1.033 and 1.014
- c-jun (dose 20): 0.8724 and 0.8417
- c-myc (dose 20): 1.263 and 0.7701
- p53 (dose 20): 1.141 and 1.123
- {Ribosomal protein L6} (dose 20): 1.13 and 0.9995
- 3-hydroxyisobutyrate dehydrogenase (dose 80): 0.9364 and 1.012 and 0.9868
- 14-3-3 zeta (dose 80): 1.349 and 1.439 and 1.37
